# Measured values reported in ChEMBL document CHEMBL1138375, “SAR studies of 6-(arylamino)-4,4-disubstituted-1-methyl-1,4-dihydro-benzo[d][1,3]oxazin-2-ones as progesterone receptor antagonists” (Bioorg Med Chem Lett, 2007).
# Molecular target: T1, Progesterone receptor (Homo sapiens, UniProt P06401)
# T1 sequence (P06401 whole entry): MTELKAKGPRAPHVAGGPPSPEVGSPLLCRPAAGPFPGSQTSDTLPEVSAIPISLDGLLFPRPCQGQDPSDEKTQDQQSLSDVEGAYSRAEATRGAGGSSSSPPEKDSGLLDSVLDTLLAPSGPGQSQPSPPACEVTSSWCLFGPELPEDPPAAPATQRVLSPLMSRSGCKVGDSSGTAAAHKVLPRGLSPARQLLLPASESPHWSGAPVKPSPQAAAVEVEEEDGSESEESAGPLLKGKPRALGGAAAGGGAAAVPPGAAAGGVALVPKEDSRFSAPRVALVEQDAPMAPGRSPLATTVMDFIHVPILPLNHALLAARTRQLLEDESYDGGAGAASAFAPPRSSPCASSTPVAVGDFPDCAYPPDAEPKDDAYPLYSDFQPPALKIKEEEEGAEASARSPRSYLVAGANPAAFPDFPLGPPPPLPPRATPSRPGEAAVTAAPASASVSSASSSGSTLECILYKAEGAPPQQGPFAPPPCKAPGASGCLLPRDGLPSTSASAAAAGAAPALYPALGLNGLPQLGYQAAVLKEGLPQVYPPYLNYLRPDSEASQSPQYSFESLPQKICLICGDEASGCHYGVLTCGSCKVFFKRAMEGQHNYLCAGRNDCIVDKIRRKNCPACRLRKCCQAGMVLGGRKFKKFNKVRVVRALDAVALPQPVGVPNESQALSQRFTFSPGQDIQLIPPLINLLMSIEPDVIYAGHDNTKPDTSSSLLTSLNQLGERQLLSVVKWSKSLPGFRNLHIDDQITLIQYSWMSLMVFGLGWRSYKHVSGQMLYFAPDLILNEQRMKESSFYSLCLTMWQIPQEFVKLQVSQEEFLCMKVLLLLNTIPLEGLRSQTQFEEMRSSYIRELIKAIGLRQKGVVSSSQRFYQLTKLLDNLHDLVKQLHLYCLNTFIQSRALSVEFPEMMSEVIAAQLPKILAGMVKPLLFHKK
# Assay: Antagonist activity at progesterone receptor expressed in T47D cells assessed as inhibition of progesterone-induced alkaline phosphatase activity
# Format: functional, cell-based
smiles,measurement,value
CCC1(CC)OC(=O)N(C)c2ccc(Nc3ccc(F)c(C#N)c3)cc21,IC50,9.2 nM
CCC1(c2ccccc2)OC(=O)N(C)c2ccc(Nc3cccc(Cl)c3)cc21 (centres undefined),IC50,66.1 nM
CCC1(c2ccc(Cl)cc2)OC(=O)N(C)c2ccc(Nc3cccc(Cl)c3)cc21 (centres undefined),IC50,71.8 nM
CN1C(=O)OC(C)(C)c2cc(Nc3cccc(Cl)c3Cl)ccc21,IC50,56 nM
CN1C(=O)OC(C)(C)c2cc(Nc3ccc(Br)cc3)ccc21,IC50,54.4 nM
CCN1C(=O)OC(C)(C)c2cc(Nc3ccc(Br)cc3)ccc21,IC50,1000 nM
CCC1(CC)OC(=O)N(C)c2ccc(Nc3cc(Cl)cc(Cl)c3)cc21,IC50,8.1 nM
CCC1(CC)OC(=O)N(C)c2ccc(Nc3cc(F)cc(C#N)c3)cc21,IC50,14.5 nM
CC1(C)OC(=O)N(c2ccccc2)c2ccc(Nc3ccc(Br)cc3)cc21,IC50,3000 nM
CC1(C)OC(=O)N(Cc2ccccc2)c2ccc(Nc3ccc(Br)cc3)cc21,IC50,3000 nM
CCC1(CC)OC(=O)N(C)c2ccc(Nc3ccc(F)c(F)c3)cc21,IC50,27.4 nM
CCC1(CC)OC(=S)N(C)c2ccc(Nc3ccc(F)c(F)c3)cc21,IC50,42.2 nM
CCC1(CC)OC(=O)N(C)c2ccc(Nc3cccc(Cl)c3Cl)cc21,IC50,5 nM
CCC1(CC)OC(=O)N(C)c2ccc(Nc3cccc(Cl)c3)cc21,IC50,13.1 nM
CN1C(=S)OC(C)(C)c2cc(Nc3ccc(Br)cc3)ccc21,IC50,30 nM
CN1C(=O)OC(c2ccc(Cl)cc2)(c2ccc(Cl)cc2)c2cc(Nc3cccc(Cl)c3)ccc21,IC50,1000 nM
CN1C(=O)OC(C)(C)c2cc(Nc3ccc(Cl)c(Cl)c3)ccc21,IC50,100 nM
CC1(C)OC(=O)Nc2ccc(Nc3cccc(Cl)c3Cl)cc21,IC50,206 nM
CC(C)N1C(=O)OC(C)(C)c2cc(Nc3ccc(Br)cc3)ccc21,IC50,1000 nM
CCC1(CC)OC(=O)N(C)c2ccc(Nc3ccc(Cl)c(Cl)c3)cc21,IC50,29.8 nM
CCC1(CC)OC(=O)N(C)c2ccc(Nc3ccc(C#N)c(F)c3)cc21,IC50,37.1 nM
CCC1(CC)OC(=O)N(C)c2ccc(Nc3cc(F)cc([N+](=O)[O-])c3)cc21,IC50,8.4 nM
CCC1(c2cccs2)OC(=O)N(C)c2ccc(Nc3cccc(Cl)c3)cc21 (centres undefined),IC50,32.2 nM
CCC1(CC)OC(=O)N(C)c2ccc(Nc3ccc(F)c(Cl)c3)cc21,IC50,9 nM
